Test [1] has as its target T1, Hco-ACC-1 (in the Hco-ACC-1/2 heteromeric channel) (Haemonchus contortus, UniProt A0A219KVV5+A0A219KWM7).
T1 sequence (A0A219KVV5 23-459): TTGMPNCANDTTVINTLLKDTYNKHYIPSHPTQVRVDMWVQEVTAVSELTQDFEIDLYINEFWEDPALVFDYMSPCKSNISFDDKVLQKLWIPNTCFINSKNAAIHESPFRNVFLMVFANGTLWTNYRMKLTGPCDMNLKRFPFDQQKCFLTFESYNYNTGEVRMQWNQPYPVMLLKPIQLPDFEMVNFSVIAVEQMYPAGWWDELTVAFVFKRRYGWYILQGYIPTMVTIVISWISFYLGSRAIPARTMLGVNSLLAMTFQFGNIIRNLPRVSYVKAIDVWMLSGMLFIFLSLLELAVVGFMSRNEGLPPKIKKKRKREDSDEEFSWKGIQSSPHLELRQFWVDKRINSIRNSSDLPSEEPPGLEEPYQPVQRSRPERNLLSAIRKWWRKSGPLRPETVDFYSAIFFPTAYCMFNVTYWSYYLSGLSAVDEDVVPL
T1 sequence (A0A219KWM7 18-443): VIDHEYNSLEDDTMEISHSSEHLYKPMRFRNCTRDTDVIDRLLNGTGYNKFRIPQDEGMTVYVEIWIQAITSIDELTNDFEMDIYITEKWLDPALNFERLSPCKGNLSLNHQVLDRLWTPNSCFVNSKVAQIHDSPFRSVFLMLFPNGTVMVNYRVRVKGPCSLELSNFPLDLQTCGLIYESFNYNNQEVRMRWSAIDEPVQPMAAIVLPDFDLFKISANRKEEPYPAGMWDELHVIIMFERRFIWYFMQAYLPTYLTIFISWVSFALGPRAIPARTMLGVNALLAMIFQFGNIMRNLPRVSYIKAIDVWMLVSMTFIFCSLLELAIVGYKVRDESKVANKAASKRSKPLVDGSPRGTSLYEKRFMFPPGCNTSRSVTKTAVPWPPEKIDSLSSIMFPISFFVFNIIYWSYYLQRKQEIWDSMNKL
The test can be described thus: two-electrode voltage clamp in Xenopus oocytes, dose-response. The test is classed as cell-based. A general note: Two-electrode voltage clamp holds a large cell at a set potential and records current.

Test [2] has as its target T2, Hco-ACC-2 (homomeric channel) (Haemonchus contortus, UniProt A0A219KWM7).
T2 sequence (A0A219KWM7 18-443): T1 sequence (A0A219KWM7 18-443)
The description is as above. It is filed as cell-based.

What is called EC50 is the concentration needed to bring the measured effect to its halfway point. Read a low EC50 as higher potency in that assay.

On to `C[N+](C)(C)CCOC(N)=O` [carbachol], for which the EC50 in test [1] amounted to 32.5 ± 3 µM; in test [2], 46 ± 2 µM.

The values are drawn from publication PMC6287539 (International Journal for Parasitology: Drugs and Drug …, 2018).
